From the supplement of paper PMC10307832

Assays:
Test in all cases: relative viability (nuclei count vs DMSO), 5 days (fraction); higher = more cells survive
[1] = compound: C[C@@H](Oc1cc(-c2cnn(C3CCNCC3)c2)cnc1N)c1c(Cl)ccc(F)c1Cl [Crizotinib] + NC(=O)Nc1cc(-c2cccc(F)c2)sc1C(=O)N[C@H]1CCCNC1 [AZD7762] (partner 0.2 µM)
Method in brief: (§1)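 A single step with final 0.05% Triton X-100, 1% formaldehyde and 1 ug/ml Hoechst fixed the cells and stained nuclei 5 days after treatment. Lung cancer cell lines in 1536-well plates had been treated by pin tool the day after seeding with one drug alone or a fixed anchor-drug dose plus five library-drug doses (not always all listed) in √10 steps, and nuclei were counted on 4× images. Relative viability is the ratio of nuclei in treated wells to nuclei in vehicle wells, taken as the median of duplicate plates.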

[2] = compound: CC(C)C[C@H](NC(=O)[C@H](CCc1ccccc1)NC(=O)CN1CCOCC1)C(=O)N[C@@H](Cc1ccccc1)C(=O)N[C@@H](CC(C)C)C(=O)[C@@]1(C)CO1 [Carfilzomib] + CC1(C)CCC(c2ccc(Cl)cc2)=C(CN2CCN(c3ccc(C(=O)NS(=O)(=O)c4ccc(N[C@H](CCN5CCOCC5)CSc5ccccc5)c(S(=O)(=O)C(F)(F)F)c4)cc3)CC2)C1 [Navitoclax] (partner 0.5 µM)
Method in brief: as §1

[3] = compound: C[C@@H](Oc1cc(-c2cnn(C3CCNCC3)c2)cnc1N)c1c(Cl)ccc(F)c1Cl [Crizotinib] + CC(C)C[C@H](NC(=O)[C@H](Cc1ccccc1)NC(=O)c1cnccn1)B(O)O [Bortezomib] (partner 0.002 µM)
Method in brief: as §1

[4] = compound: O=C(c1cc(Cc2n[nH]c(=O)c3ccccc23)ccc1F)N1CCN(C(=O)C2CC2)CC1 [Olaparib] + CS(=O)(=O)CCNCc1ccc(-c2ccc3ncnc(Nc4ccc(OCc5cccc(F)c5)c(Cl)c4)c3c2)o1 [Lapatinib] (partner 2 µM)
Method in brief: as §1

Row | Cell Line | relative viability ([1]; first compound 0.03162 µM) | relative viability ([1]; first compound 0.1 µM) | relative viability ([1]; first compound 0.3162 µM) | relative viability ([1]; first compound 1 µM) | relative viability ([2]; first compound 0.003162 µM) | relative viability ([2]; first compound 0.01 µM) | relative viability ([2]; first compound 0.03162 µM) | relative viability ([2]; first compound 0.1 µM) | relative viability ([3]; first compound 0.01 µM) | relative viability ([3]; first compound 0.03162 µM) | relative viability ([3]; first compound 0.1 µM) | relative viability ([3]; first compound 0.3162 µM) | relative viability ([3]; first compound 1 µM) | relative viability ([4]; first compound 0.08 µM) | relative viability ([4]; first compound 0.253 µM) | relative viability ([4]; first compound 2.53 µM) | relative viability ([4]; first compound 8 µM) | relative viability ([2]; first compound 0.001 µM) | relative viability ([1]; first compound 0.01 µM)
1 | NCI-H1648 | 0.513 | 0.684 | 0.467 | 0.723 |  |  |  |  |  |  |  |  |  |  |  |  |  |  | 
2 | NCI-H1650 |  |  |  |  | 1.09 | 1.24 | 0.1 | 0.119 | 0.188 | 0.173 | 0.205 | 0.159 | 0.2 | 1.04 | 0.756 | 0.796 | 0.749 |  | 
3 | NCI-H1944 | 0.566 | 0.53 | 0.446 | 0.489 | 1.16 | 1.01 | 1.05 | 0.546 |  |  |  |  |  | 0.781 | 0.663 | 0.668 | 0.627 | 0.998 | 0.449
4 | NCI-H2009 |  |  |  |  | 1.2 | 1.15 | 0.993 | 0.0572 | 0.896 | 1.04 | 1.09 | 0.837 | 0.96 | 0.934 | 0.975 | 0.884 | 0.606 | 1.24 | 
5 | NCI-H2023 |  |  |  |  | 0.967 | 1.02 | 0.907 | 0.0939 | 0.813 | 0.964 | 0.88 | 0.647 | 0.806 | 1.08 | 0.755 | 0.763 | 0.691 | 1 | 
6 | NCI-H2170 | 0.894 | 0.835 | 0.852 | 0.858 | 0.688 | 0.617 | 0.409 | 0.197 |  |  |  |  |  | 0.29 | 0.259 | 0.269 | 0.279 | 0.698 | 0.761
